Experiments:
BTB/POZ-Δ513 interaction = biological target: T1, BTB/POZ-Δ513 interaction (Arabidopsis thaliana, UniProt P93002); assay: in vivo plant two-hybrid assay; type: cell-based; set-up: expressed in transfected cells; host or cells: Arabidopsis thaliana (Columbia) leaves, biolistic bombardment; conditions: 1 mM salicylic acid in medium, reporter mRNA
T1 sequence (P93002 513-593): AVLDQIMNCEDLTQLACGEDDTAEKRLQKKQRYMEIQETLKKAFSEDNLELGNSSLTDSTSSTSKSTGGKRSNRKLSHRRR
Procedure: (§1) Arabidopsis thaliana (Columbia) leaves were harvested from four-week-old plants grown at 21° C. (day) and 18° C. (night) with a ten-hour photoperiod and transferred to Petri dishes containing MS salts and micronutrients supplemented with B5 vitamins, 1% sucrose and 0.8% agar at a pH of 5.8. […] Coating of the gold particles and general procedures and preparation of the biolistic experiments were as per the manufacturer's instructions (Bio-Rad). After bombardment, leaves were kept in the conditions described above for a period of 24 hours before assaying. Enzyme assays were performed using the Dual-Luciferase Reporter Assay® system (Promega) following the manufacturer's instructions. Luminescence was measured on a Berthold Lumat LB9507 Luminometer (Bad Wildbad, Germany) and the data obtained represented the value of the reporter gene divided by the value of the internal standard and expressed as Relative Luciferase Units. To increase signal-to-noise ratio in some experiments, qPCR was performed to measure the amount of Firefly and Renilla Luciferases mRNA. […]
Since BTB/POZ domains can be autoinhibitory, it was determined whether or not the NPR1 BTB/POZ can interact with the NPR1 transactivation domain. […] Here the reporter gene was monitored through its mRNA as opposed to its enzyme activity, which provided a greater signal-to-noise ratio (see Experimental Procedures). […]

[1] = test system: transcription activity of Δ513; assay: in vivo plant transcription assay, Δ513:DB co-expressed with BTB/POZ; type: cell-based, Arabidopsis thaliana; conditions: 1 mM salicylic acid in medium
Procedure: as §1, with “mRNA. The data was reported as Relative Expression and represented the value of the reporter mRNA divided by the value of the internal standard mRNA. The ratio obtained for Ga14 DB was assigned an arbitrary value of 1.” for “mRNA.”
It was then determined whether or not the BTB/POZ could modulate the transcriptional properties of Δ513 (FIG. 5F). […]

[2] = biological target: T2, NPR1-dependent oligomer on the PR-1 promoter (Arabidopsis thaliana, UniProt P93002); assay: Cross-linked-chromatin chromatography (3C Method); type: in vivo; conditions: wild-type plants, region −734 to −833
T2 construct: in wild-type plants (WT), such an oligomer forms on the PR-1 promoter; endogenous in cells; host or cells: wild-type Arabidopsis plants
T2 sequence (P93002 1-593): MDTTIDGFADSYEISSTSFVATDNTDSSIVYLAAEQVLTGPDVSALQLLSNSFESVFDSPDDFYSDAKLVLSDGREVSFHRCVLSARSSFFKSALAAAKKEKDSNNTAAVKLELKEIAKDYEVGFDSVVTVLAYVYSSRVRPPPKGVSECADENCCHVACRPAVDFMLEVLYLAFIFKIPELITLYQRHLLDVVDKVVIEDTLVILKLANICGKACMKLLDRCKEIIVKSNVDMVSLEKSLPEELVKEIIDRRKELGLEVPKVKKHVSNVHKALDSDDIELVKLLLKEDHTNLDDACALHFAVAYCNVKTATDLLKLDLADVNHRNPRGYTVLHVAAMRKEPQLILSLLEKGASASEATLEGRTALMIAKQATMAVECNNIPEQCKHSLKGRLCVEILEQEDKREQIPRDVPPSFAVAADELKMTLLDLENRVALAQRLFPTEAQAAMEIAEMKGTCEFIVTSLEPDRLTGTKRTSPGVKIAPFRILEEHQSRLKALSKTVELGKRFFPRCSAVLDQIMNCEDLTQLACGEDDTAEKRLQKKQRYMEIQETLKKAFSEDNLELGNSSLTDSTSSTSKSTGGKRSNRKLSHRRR
Procedure: Plant treatment, cross-linking, sonication, and cross-linking reversal were performed as for chromatin-immunoprecipitation (Rochon et al., 2006). Chromatography was as described under “Chromatography”. qPCR was performed with PR1 and Ubiquitin5 primers. PR-1 values were normalized against Ubiquitin5 (see Table 1 for primer sequence).
Although there are no decisive methods to test the stoichiometry of a protein in vivo, it was determined whether or not NPR1-dependent oligomers form on DNA in vivo by combining chromatin cross-linking, gel filtration, and qPCR (the 3C Method). The rationale was that, if an NPR1-dependent oligomer forms on the PR1 promoter in vivo, the presence of PR1 should be detectable by qPCR in the void fraction of an S300 after the chromatin had been cross-linked and sheared by sonication.

Δ513 = biological target: T3, Δ513 (Arabidopsis thaliana, UniProt P93002); assay: Sephacryl S100 gel filtration of Strep-tagged Δ513; type: biochemical; conditions: 1 mM SA
T3 construct: made in house; host or cells: E. coli
T3 sequence (P93002 513-593): T1 sequence (P93002 513-593)
Procedure: Strep-tagged purified proteins in a final volume of 2 ml were subjected to gel filtration analysis on the Sephacryl S100 HR or Sephacryl S300 HR packed in 50 cm long HR 16 columns (GE Health) and equilibrated with S300 chromatography buffer (50 mM HEPES, pH 7.4, 250 mM NaCl. Elutions, in 0.5 ml fractions, were performed in the same buffer at a flow rate of 0.8 ml/min. Where indicated, proteins were incubated with 1 mM SA, 1 mM catechol, 1 mM 4-hydroxy benzoic acid, or 1 mM methyl-salicylate at room temperature for 30 min prior to chromatography as described above with the exception that the chromatography buffer was supplemented with 1 mM SA, 1 mM catechol, 1 mM 4-hydroxy benzoic acid, or 1 mM methyl-salicylate, respectively. In the case of the EDTA treatment, NPR1 was stripped of its metal by a 50 mM EDTA treatment of 30 min, followed by an incubation of 30 min with 1 mM SA prior to gel filtration. In this case, the chromatography buffer was supplemented with 1 mM SA.

Structure (SMILES): O=C(O)c1ccccc1O [SA, Salicylic acid]
- BTB/POZ-Δ513 interaction in plant two-hybrid (BTB/POZ-Δ513 interaction): disrupts the BTB/POZ-Δ513 association
- transcription activity of Δ513 co-expressed with BTB/POZ in SA-treated cells [1]: unaffected by the BTB/POZ
- NPR1-dependent oligomer on the PR-1 promoter (void fraction, qPCR) [2]: not after a treatment with SA
- stoichiometry of Δ513 after SA treatment (S100) (Δ513): consistent with that of a dimer
